{"source": "patent US20020039780A1", "about": "“Salicyclic acid inducible genes and promoters” (priority 1998, published 2002)", "key": {"class II genes": {"system": "class II genes", "experiment": "Northern analysis of poly(A) mRNA from treated tobacco cells", "assay_type": "cell-based", "conditions": "SA at 2, 4, 8 h; 71 μM CHX 5 hrs; CHX + 200 μM SA", "experimental": "(§1) FIG. 1. Four classes of SA-induced early genes. Northern analysis of genes identified by differential display. Gel-purified DNA fragments produced by ddPCR were either used directly for random-primed labeling and probing of Northern filters (e.g. C7-1, C6-1, and G9-2) or first subcloned and released by restriction digest. Each lane contains 1 μg of poly(A) mRNA from cultured tobacco cells treated with (1) H2O, 4 hr; (2) 200 μM SA, 4 hr; (3) 71 μM CHX, 5 hr; (4) 71 μM CHX, 5 hr plus 200 μM SA after 1 hr (4 hr total); (5) 20 μM SA, 2 hr; (7) 200 μM SA, 8 hr. One blot was sequentially hybridized with the G1-1 fragment and the β-ATPase gene as a loading control probe. response classes (I-IV) are indicated on the left of the autoradiograms.\n(§2) Differential display technology (Liang, P. and Pardee, A. B., Science 257: 967-971, 1992) was used to identify genes activated in the presence of SA, CHX and both. Therefore the absence or presence of SA, induction at 3 timepoints of SA-treatment, 2 different concentrations of SA and the effect of addition of CHX were measured. Seven treatments in total were performed. Treatment of tobacco BY-2 suspension cells and leaves and differential display PCR reactions were performed as described (Horvath and Chua (1996), Plant Mol. Biol. 31, 1061-1072).\n(§3) Fiftytwo were recovered for testing on poly(A)+Northern blots loaded with mRNA derived from cells from each of the treatments."}, "Class I genes": {"system": "Class I genes", "experiment": "Northern analysis of poly(A) mRNA from treated tobacco cells", "assay_type": "cell-based", "conditions": "SA at 2, 4 or 8 h; 71 μM CHX 5 hrs; CHX + 200 μM SA", "experimental": "as §1, §2, §3"}, "[1]": {"system": "class IV genes (G3-2 and C14-1b)", "experiment": "Northern analysis of poly(A) mRNA from treated tobacco cells", "assay_type": "cell-based", "conditions": "SA at 2, 4, 8 h; 71 μM CHX 5 hrs", "experimental": "as §1, §2, §3"}, "C18-1/EREBP1": {"system": "C18-1/EREBP1", "experiment": "Northern analysis of mRNA accumulation in cultured tobacco cells", "assay_type": "cell-based", "experimental": "(§4) FIG. 2. Time course of SA-induced gene expression. Northern analysis of representative differential display genes following treatment of cultured tobacco cells with SA for the indicated time (in hours, except lanes 2-4, which refer to 10, 20, and 30 min.). Twenty micrograms of total RNA was loaded per lane. Blots were hybridized with ddPCR fragments indicated at right or with the β-ATPase gene as a loading control probe. Autoradiogram exposure times were optimized for each gene. […] Labels on left indicate response class.\n(§5) FIG. 4. Specificity of induction among SA analogs and other signalling compounds. Northern analysis of representative differential display genes following treatment of tobacco cells with 100 μM or 1 mM (left and right side of triangles, respectively) of the following chemicals for 2-2.5 hr: salicylic acid (SA, lanes 4 and 5), acetylSA (ASA, lanes 6 and 7), benzoic acid (BA, lanes 8 and 9), 4-hydroxybenzoic (4HBA, lanes 10 and 11), thiamine (thia, lanes 12 and 13), methyljasmonate (MJ, lanes 14 and 15), abscisic acid (ABA, lanes 16 and 17), or 2,4-dichlorophenoxyacetic acid (2,4-D, lanes 18 and 19). Control treatments are H2O (H, lane 1), 1% ethanol (E, solvent concentration in MJ treatments, lane 2), or 1% DMSO (D, solvent concentration in 2,4D treatments, lane 3). Blots were hybridized with ddPCR fragments indicated at right or with the β-ATPase geneas a loading control probe. Autoradiogram exposure times were optimized for each gene. […] Labels on left indicate response class.\n(§6) FIG. 5. Dose response of C18-1 and G8-1 to a range of chemicals. Northern analysis of tobacco cell cultures with eight concentrations of SA, ASA, BA, 4HBA, Thia, MJ, ABA, 2,4-D, or H2O for 2-2.5 hr. Concentrations were 0.1, 1, 3, 10, 30, 100, 300 μM or […], as indicated.\n(§7) FIG. 6. […] Graphic representation of mRNA accumulation of G8-1 ( ), C18se -1 (♦), and IEGT (o) in response to a 2-2.5 hr incubation of cultured tobacco cells with a range of SA concentrations. RNA gel blots were quantitated by phosphorimaging analysis and normalized relative to the β-ATPase gene loading control (not shown).\nas §2\nThe kinetics of induction were examined in detail through time course experiments for representative clones of each class (FIG. 2).\n(§8) The specificity for induction by SA was tested by treating tobacco cells with a range of SA analogs and plant signalling compounds at 0.1 and 1 mM for approximately 2.5 h. […] Several genes, including those for proteinase inhibitors and lipoxygenase (Hildmann, T. et al., Plant Cell 4: 1157-1170, 1992; Melan, M. A. et al., Plant Physiol. 101: 441-450, 1993; Xu, D. et al., Plant Mol. Biol. 22: 573-588, 1993) are known to be under dual regulation by MJ and ABA.\nA dose-response curve was made for SA. Therefore tobacco cells were treated with SA in a range of concentrations from 0.1 μM to 2 mM."}, "G1-1/EGT": {"system": "G1-1/EGT", "conditions": "SA; previously shown (Horvath and Chua, 1996); cited from earlier work"}, "[2]": {"system": "early SA-induced genes identified by differential display", "experiment": "Northern analysis of differential display genes in cultured tobacco cells", "assay_type": "cell-based", "experimental": "as §1, with “Four classes of SA-induced early genes.” left out, “hr.” for “hr. One blot was sequentially hybridized with the G1-1 fragment and the β-ATPase gene as a loading control probe. response classes (I-IV) are indicated on the left of the autoradiograms.”\nas §5, §2, §8"}, "G8-1 [3]": {"system": "G8-1", "experiment": "Northern analysis of mRNA accumulation in cultured tobacco cells", "assay_type": "cell-based", "experimental": "as §1, with “Four classes of SA-induced early genes.” left out, “hr.” for “hr. One blot was sequentially hybridized with the G1-1 fragment and the β-ATPase gene as a loading control probe. response classes (I-IV) are indicated on the left of the autoradiograms.”\nas §4, §5, §6, §7, §2\nThe specificity for induction by SA was tested by treating tobacco cells with a range of SA analogs and plant signalling compounds at 0.1 and 1 mM for approximately 2.5 h."}, "G8-1 [4]": {"system": "G8-1", "experiment": "Northern analysis of mRNA accumulation in cultured tobacco cells", "assay_type": "cell-based", "conditions": "SA 0.1 μM to 2 mM"}, "[5]": {"conditions": "0.1 and 1 mM, approximately 2.5 h"}}, "data": [{"compound": "O=C(O)c1ccccc1O", "note": "[SA, salicylic acid]", "values": [{"measurement": "mRNA induction of class II genes", "setting": "class II genes", "value": "rapid and transient"}, {"measurement": "mRNA induction of Class I genes", "setting": "Class I genes", "value": "little if any detectable mRNA accumulation"}, {"measurement": "mRNA induction of class IV genes", "setting": "[1]", "value": "rapid and sustained induction"}, {"measurement": "C18-1/EREBP1 induction at 0.1 mM versus 1 mM", "setting": "C18-1/EREBP1; [5]", "value": "greater induction at 1mM"}, {"measurement": "EC50", "setting": "C18-1/EREBP1; Nicotiana tabacum, tobacco cells, SA 0.1 μM to 2 mM, 2-2.5 hr, read-out: concentration of SA required for half of the maximum level of C18-1/EREBP1 expression", "value": "100 to 150", "unit": "µM"}, {"measurement": "response zone of C18-1/EREBP1 to SA concentration", "setting": "C18-1/EREBP1; SA 0.1 μM to 2 mM", "value": "narrow response zone"}, {"measurement": "time of decay of C18-1/EREBP1 mRNA to background levels", "setting": "C18-1/EREBP1; SA time course", "value": "≤ 4.5", "unit": "h"}, {"measurement": "time of peak C18-1/EREBP1 mRNA", "setting": "C18-1/EREBP1; SA time course", "value": 2, "unit": "h"}, {"measurement": "time at which G1-1/EGT is induced", "setting": "G1-1/EGT", "value": "20 to 30", "unit": "min"}, {"measurement": "time of peak G1-1/EGT", "setting": "G1-1/EGT", "value": 3, "unit": "h"}, {"measurement": "induction of most of the genes at 20 μM SA", "setting": "[2]; 20 μM SA", "value": "little or none"}, {"measurement": "induction of most of the genes at 200 μM SA", "setting": "[2]; 200 μM SA", "value": "clear induction"}, {"measurement": "G8-1 mRNA levels at 20 μM SA", "setting": "G8-1 [3]; 20 μM SA", "value": "comparable to those at 200 μM"}, {"measurement": "G8-1 induction at 0.1 mM versus 1 mM", "setting": "G8-1 [3]; [5]", "value": "equal or greater induction at 0.1 mM versus 1 mM"}, {"measurement": "mRNA induction of G8-1 (class III)", "setting": "G8-1 [3]; SA at 2, 4, 8 h, 71 μM CHX 5 hrs", "value": "rapid mRNA induction"}, {"measurement": "time at which G8-1 is first detected", "setting": "G8-1 [3]; SA time course", "value": "30 to 60", "unit": "min"}, {"measurement": "time at which G8-1 reaches a plateau", "setting": "G8-1 [3]; SA time course", "value": "2 to 2.5", "unit": "h"}, {"measurement": "time for which G8-1 plateau is maintained", "setting": "G8-1 [3]; SA time course", "value": "at least 12 h"}, {"measurement": "EC50", "setting": "G8-1 [4]; Nicotiana tabacum, tobacco cells, 2-2.5 hr, read-out: concentration of SA required for half of the maximum level of G8-1 expression", "value": "~1", "unit": "µM"}, {"measurement": "response of G8-1 expression to SA concentration range", "setting": "G8-1 [4]", "value": "activated over a large SA concentration range"}]}]}
